In article PMC9961069 (Metabolites, 2023):
Where two headings read alike, the source gives them in different places.

Columns and labels:
[1] = test system: MDA-MB-231 cells; test: Resazurin viability assay with or without folinic acid, MDA-MB-231; assay type: cell-based, Human; details: 72 h
Description: The incorporation and metabolism of resazurin to resorufin was used to monitor cell viability. MDA-MB-468, MCF7, and MDA-MB-231 cells were grown in 96-well plates with a total of 5000 cells per well in a total volume of 180 μL for 24 h, as described above. After 24 h of growth, cells were treated with increasing concentrations of compounds (0.0457–100 μM) for 72 h. A vehicle control was also performed. […] The volume of treatment added to each well was 20 μL. For folinic acid rescue experiments, 5000 cells were treated with 10 μM compound with or without 300 μg/mL folinic acid (Supelco). After 72 h of treatment, resazurin was added to a final concentration of 44 μM, and cells were incubated for an additional 4 h at 37 °C. The fluorescence of resorufin was monitored on a Synergy MX microplate reader (BioTek) using an excitation wavelength of 540 nm and an emission wavelength of 600 nm. Percent viability relative to the DMSO control was determined. Each treatment was performed in triplicate, and each individual experiment was repeated three times (n = 3).

[2] = biological target: T1, purified human DHFR (Homo sapiens, UniProt P00374); test: DHFR enzymatic inhibition assay (NADPH absorbance at 340 nm); assay type: biochemical; details: 137.5 μM DHF, 125 μM NADPH, n = 2
T1 construct: made in house; host or cells: E. coli BL21 (DE3) T1R pRARE2, pNIC-Bsa4 plasmid
T1 sequence (P00374 1-187): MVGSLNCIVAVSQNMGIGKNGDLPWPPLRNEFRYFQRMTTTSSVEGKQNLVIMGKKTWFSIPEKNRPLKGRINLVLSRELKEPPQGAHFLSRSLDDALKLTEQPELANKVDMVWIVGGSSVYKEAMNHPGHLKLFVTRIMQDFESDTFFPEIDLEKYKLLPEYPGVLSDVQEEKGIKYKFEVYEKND
Description: Working stocks of each inhibitor were created so that the final concentration of DMSO in each reaction was 2% in a final reaction volume of 100 μL. […] Reactions were prepared on ice in 384-well plates. […] Consumption of NADPH by measuring absorbance at 340 nm was used to monitor the progress of the reaction. Readings were taken every 5 min for 1 h at 37 °C using a Synergy MX microplate reader (BioTek).
Percent inhibition relative to the no-inhibitor control was determined using Equation (1). (1) % Inhibition=A340Inhibitor−A340DMSO Control/A340No DHFR−A340DMSO Control×100
Percent inhibition data were then fit to the four-parameter logistic model (Equation (2)) in GraphPad Prism 9.4.1 to determine half-maximal inhibitory concentrations (IC50):(2) y=Bottom+Top−Bottom/1+IC50/x^Hill slope where y represents the percent inhibition, x represents the concentration of inhibitor (μM), the bottom and top represent the bottom and top plateaus, and the Hill slope represents the slope factor. Each experiment contained duplicates of each sample, and each experiment was performed 2 times (n = 2). An ordinary one-way ANOVA was used to test for statistical significance between treatments.

Compound: CC1(C)N=C(N)N=C(N)N1c1ccc(CCCCc2ccc(S(=O)(=O)F)cc2)c(Cl)c1 [compound 127159]
- Relative Viability (%) – Inhibitor + FA Treatment ([1]; MDA-MB-231, 10 μM + 300 μg/mL folinic acid): 106.42 ± 15.0%
- Rescue of viability impairment by folinic acid ([1]; MDA-MB-231, 10 μM ± 300 μg/mL FA): largest amplitude of rescue
- Relative Viability (%) – Inhibitor Alone ([1]; MDA-MB-231, 10 μM, relative to DMSO): 50.08 ± 8.8%
- IC50 ([2]; 200 nM DHFR, read-out: IC50): 750 ± 320 nM
- IC50 ([2]; IC50, 200 nM DHFR): < 1000 nM
